Test results from patent US10005754B2, “Form of spirodiclofen, a process for its preparation and use the same” (priority 2015, dated 2018).

Experiment: Comparison of storage stability of suspension concentrates (CIPAC MT 46.3)
Assay type: physicochemical
Procedure: Samples prepared in Examples 4 and 5 were stored at 54° C. for 1 month, 3 months and 6 months. The procedures are followed according to CIPAC MT 46.3. The concentration of spirodiclofen was measured at the end of each storage time by HPLC. The aggregation was measured by observation. The original concentration of spirodiclofen in each formulation was 25%.

Structure (SMILES) | storage stability / aggregation after prolong storage (listed as spirodiclofen in amorphous state) | storage stability / aggregation after prolong storage (listed as crystalline modification I of spirodiclofen)
CCC(C)(C)C(=O)OC1=C(c2ccc(Cl)cc2Cl)C(=O)OC12CCCCC2 [Example 1, 3-(2,4-dichlorophenyl)-2-oxo-1-oxaspiro[4.5]dec-3-en-4-yl-2,2-dimethyl butyrate] | high tendency of aggregation | 
CCC(C)(C)C(=O)OC1=C(c2ccc(Cl)cc2Cl)C(=O)OC12CCCCC2 [Example 2, 3-(2,4-dichlorophenyl)-2-oxo-1-oxaspiro[4.5]dec-3-en-4-yl-2,2-dimethyl butyrate] |  | significant improvement in its stability without aggregation
